# Source: ChEMBL document CHEMBL3774345, “Synthesis of new diarylamides with pyrimidinyl pyridine scaffold and evaluation of their anti-proliferative effect on cancer cell lines” (Bioorg Med Chem Lett, 2016)
# Columns and labels:
# [1] = test system: MCF7; experiment: Cytotoxicity against human MCF7 cells assessed as cell growth at 10^-6 M after 24 hrs by SRB assay; type: functional; conditions: MCF7, 24 h, read-out: Activity
# [2] = Cytotoxicity against human HL-60(TB) cells assessed as cell growth at 10^-7 M after 24 hrs by SRB assay; type: functional; conditions: HL-60, 24 h, read-out: Activity
# [3] = Cytotoxicity against human SW620 cells assessed as cell growth at 10^-8 M after 24 hrs by SRB assay; type: functional; conditions: SW-620, 24 h, read-out: Activity
# [4] = Cytotoxicity against human Caki1 cells assessed as cell growth at 10^-7 M after 24 hrs by SRB assay; type: functional; conditions: CAKI-1, 24 h, read-out: Activity
# [5] = Cytotoxicity against human NCI-ADR-RES cells after 24 hrs by SRB assay; type: functional
# [6] = test system: NCI-H226; experiment: Cytotoxicity against human NCI-H226 cells assessed as cell growth at 10^-8 M after 24 hrs by SRB assay; type: functional; conditions: NCI-H226, 24 h, read-out: Activity
# [7] = Cytotoxicity against human HCC2998 cells assessed as cell growth at 10^-4 M after 24 hrs by SRB assay; type: functional; conditions: HCC 2998, 24 h, read-out: Activity
# [8] = Cytotoxicity against human TK10 cells assessed as cell growth at 10^-4 M after 24 hrs by SRB assay; type: functional; conditions: TK-10, 24 h, read-out: Activity
# [9] = test system: SK-MEL-2; experiment: Cytotoxicity against human SK-MEL-2 cells assessed as cell growth at 10^-7 M after 24 hrs by SRB assay; type: functional; conditions: SK-MEL-2, 24 h, read-out: Activity
# [10] = test system: NCI-H322M; experiment: Cytotoxicity against human NCI-H322M cells assessed as cell growth at 10^-7 M after 24 hrs by SRB assay; type: functional; conditions: read-out: Activity
# [11] = test system: NCI-H322M; experiment: Cytotoxicity against human NCI-H322M cells assessed as cell growth at 10^-8 M after 24 hrs by SRB assay; type: functional; conditions: read-out: Activity
# [12] = test system: Malme-3M; experiment: Cytotoxicity against human MALME-3M cells assessed as cell growth at 10^-4 M after 24 hrs by SRB assay; type: functional; conditions: read-out: Activity
# [13] = test system: Malme-3M; experiment: Cytotoxicity against human MALME-3M cells assessed as cell growth at 10^-5 M after 24 hrs by SRB assay; type: functional; conditions: read-out: Activity
# [14] = test system: SR; experiment: Cytotoxicity against human SR cells assessed as cell growth at 10^-6 M after 24 hrs by SRB assay; type: functional; conditions: read-out: Activity
# [15] = Cytotoxicity against human DU145 cells assessed as cell growth at 10^-6 M after 24 hrs by SRB assay; type: functional; conditions: DU-145, 24 h, read-out: Activity
# [16] = Cytotoxicity against human COLO205 cells assessed as cell growth at 10^-4 M after 24 hrs by SRB assay; type: functional; conditions: COLO 205, 24 h, read-out: Activity
# [17] = Cytotoxicity against human BT549 cells assessed as cell growth at 10^-7 M after 24 hrs by SRB assay; type: functional; conditions: BT-549, 24 h, read-out: Activity
# [18] = test system: NCI-H322M; experiment: Cytotoxicity against human NCI-H322M cells after 24 hrs by SRB assay; type: functional
# [19] = test system: MCF7; experiment: Cytotoxicity against human MCF7 cells assessed as cell growth at 10^-4 M after 24 hrs by SRB assay; type: functional; conditions: MCF7, 24 h, read-out: Activity
# [20] = Cytotoxicity against human SF295 cells assessed as cell growth at 10^-5 M after 24 hrs by SRB assay; type: functional; conditions: SF-295, 24 h, read-out: Activity
# [21] = test system: NCI-H23; experiment: Cytotoxicity against human NCI-H23 cells assessed as cell growth at 10^-7 M after 24 hrs by SRB assay; type: functional; conditions: NCI-H23, 24 h, read-out: Activity
# [22] = Cytotoxicity against human SF539 cells assessed as cell growth at 10^-7 M after 24 hrs by SRB assay; type: functional; conditions: SF-539, 24 h, read-out: Activity
# [23] = Cytotoxicity against human Caki1 cells assessed as cell growth at 10^-6 M after 24 hrs by SRB assay; type: functional; conditions: CAKI-1, 24 h, read-out: Activity
# [24] = Cytotoxicity against human RXF393 cells assessed as cell growth at 10^-4 M after 24 hrs by SRB assay; type: functional; conditions: RXF 393, 24 h, read-out: Activity
# [25] = test system: SR; experiment: Cytotoxicity against human SR cells assessed as cell growth at 10^-4 M after 24 hrs by SRB assay; type: functional; conditions: read-out: Activity
# [26] = Cytotoxicity against human PC3 cells after 24 hrs by SRB assay; type: functional; conditions: PC-3, 24 h
# [27] = test system: SK-MEL-5; experiment: Cytotoxicity against human SK-MEL-5 cells after 24 hrs by SRB assay; type: functional, cell-based; conditions: SK-MEL-5, 24 h
# [28] = test system: HT-29; experiment: Cytotoxicity against human HT-29 cells after 24 hrs by SRB assay; type: functional; conditions: HT-29, 24 h
# [29] = Cytotoxicity against human SNB19 cells assessed as cell growth at 10^-6 M after 24 hrs by SRB assay; type: functional; conditions: SNB-19, 24 h, read-out: Activity
# [30] = test system: HT-29; experiment: Cytotoxicity against human HT-29 cells assessed as cell growth at 10^-5 M after 24 hrs by SRB assay; type: functional; conditions: HT-29, 24 h, read-out: Activity
# [31] = Cytotoxicity against human HCC2998 cells assessed as cell growth at 10^-6 M after 24 hrs by SRB assay; type: functional; conditions: HCC 2998, 24 h, read-out: Activity
# [32] = test system: U-251; experiment: Cytotoxicity against human U251 cells assessed as cell growth at 10^-4 M after 24 hrs by SRB assay; type: functional; conditions: U-251, 24 h, read-out: Activity
# [33] = Cytotoxicity against human UO31 cells after 24 hrs by SRB assay; type: functional, cell-based; conditions: UO-31, 24 h
# [34] = Cytotoxicity against human SW620 cells assessed as cell growth at 10^-5 M after 24 hrs by SRB assay; type: functional; conditions: SW-620, 24 h, read-out: Activity
# [35] = test system: SR; experiment: Cytotoxicity against human SR cells assessed as growth inhibition at 10 uM after 24 hrs by SRB assay; type: functional; conditions: read-out: GI
# [36] = read-out: LC50 (the source's name)
# [37] = read-out: pLC50 (the source's name) (converted)
smiles,measurement,setting,value
O=C(Nc1cc(-c2cccnc2)nc(NCCCN2CCOCC2)n1)c1cc(Br)cc(C(F)(F)F)c1,growth at 1 µM,[1],77%
same,growth at 0.1 µM,[2],96%
same,growth at 0.01 µM,[3],98%
same,growth at 0.1 µM,[4],90%
same,GI50,[5]; read-out: GI50,2.6 µM
same,CC50,[5]; [36],42.9 µM
same,TGI,[5]; read-out: TGI,9.11 µM
same,GI50,[5]; read-out: pGI50 (converted),2.57 µM
same,CC50,[5]; [37],42.7 µM
same,TGI,[5]; read-out: pTGI (converted),9.12 µM
same,growth at 0.01 µM,[6],92%
same,growth at 100 µM,[7],-97%
same,growth at 100 µM,[8],-98%
same,growth at 0.1 µM,[9],95%
same,growth at 0.1 µM,[10],107%
same,growth at 0.01 µM,[11],98%
same,growth at 100 µM,[12],-78%
same,growth at 10 µM,[13],-72%
same,growth at 1 µM,[14],85%
same,growth at 1 µM,[15],101%
same,growth at 100 µM,[16],-88%
same,growth at 0.1 µM,[17],97%
same,GI50,[18]; read-out: GI50,3.72 µM
same,CC50,[18]; [36],43.2 µM
same,TGI,[18]; read-out: TGI,15 µM
same,GI50,[18]; read-out: pGI50 (converted),3.72 µM
same,CC50,[18]; [37],43.7 µM
same,TGI,[18]; read-out: pTGI (converted),15.1 µM
same,growth at 100 µM,[19],-75%
same,growth at 10 µM,[20],-66%
same,growth at 0.1 µM,[21],98%
same,growth at 0.1 µM,[22],87%
same,growth at 1 µM,[23],82%
same,growth at 100 µM,[24],-86%
same,growth at 100 µM,[25],-1%
same,GI50,[26]; read-out: GI50,4.03 µM
same,CC50,[26]; [36],42.7 µM
same,TGI,[26]; read-out: TGI,15.7 µM
same,GI50,[26]; read-out: pGI50 (converted),4.07 µM
same,CC50,[26]; [37],42.7 µM
same,TGI,[26]; read-out: pTGI (converted),15.8 µM
same,IC50,[27],1.62 µM
same,GI50,[27]; read-out: GI50,1.64 µM
same,CC50,[27]; [36],5.56 µM
same,TGI,[27]; read-out: TGI,3.02 µM
same,GI50,[27]; read-out: pGI50 (converted),1.66 µM
same,CC50,[27]; [37],5.62 µM
same,TGI,[27]; read-out: pTGI (converted),3.02 µM
same,GI50,[28]; read-out: GI50,2.12 µM
same,CC50,[28]; [36],16.1 µM
same,TGI,[28]; read-out: TGI,4.95 µM
same,GI50,[28]; read-out: pGI50 (converted),2.14 µM
same,CC50,[28]; [37],16.2 µM
same,TGI,[28]; read-out: pTGI (converted),4.9 µM
same,growth at 1 µM,[29],105%
same,growth at 10 µM,[30],-41%
same,growth at 1 µM,[31],92%
same,growth at 100 µM,[32],-93%
same,IC50,[33],1.4 µM
same,GI50,[33]; read-out: GI50,1.4 µM
same,CC50,[33]; [36],8.19 µM
same,TGI,[33]; read-out: TGI,3.39 µM
same,GI50,[33]; read-out: pGI50 (converted),1.41 µM
same,CC50,[33]; [37],8.13 µM
same,TGI,[33]; read-out: pTGI (converted),3.39 µM
same,growth at 10 µM,[34],-34%
COc1cc(OC)cc(C(=O)Nc2cc(-c3cccnc3)nc(NCCCN3CCOCC3)n2)c1,inhibition of growth at 10 µM,[35],42.1%
